Source: article PMC12217461 (Antimicrobial Agents and Chemotherapy, 2025)

Columns and labels:
Assay type in all cases: cell-based
E. coli IMP-2 = assay: MIC broth microdilution, recombinant E. coli; conditions: Escherichia coli, IMP2; IMP-2-like; TAN/XER fixed at 4 µg/mL, XER 8 µg/mL in MEM-XER; read-out: Minimal inhibitory concentration
[1] = system: Klebsiella pneumoniae SMART 1134; assay: microbe, parasite or virus in culture; conditions: IMP-34, CTX-M-2, TAN/XER fixed at 4 µg/mL, XER 8 µg/mL in MEM-XER; for MIC: Klebsiella pneumoniae, SMART1134, read-out: Minimal inhibitory concentration
Experimental: (§1) Most isolates and their respective β-lactamase content were characterized by whole-genome sequencing.
(§2) To assess the inhibitory potency of XER, susceptibility testing was performed by broth microdilution method, determining the minimal inhibitory concentrations (MICs) of different antibiotics or antibiotic plus β-lactamase inhibitor combinations, including cefepime (FEP), imipenem (IPM), meropenem (MEM), and their combinations with XER (FEP-XER, IPM-XER, and MEM-XER). All data obtained with XER-based combinations were compared with data with TAN-based combinations, FEP-TAN, IPM-TAN, and MEM-TAN ([16]). FEP was purchased from Sigma-Aldrich (Saint-Louis, USA), whereas MEM was from HuiChem (Shanghai, China). […] MICs were determined in triplicate in cation-adjusted Mueller-Hinton (MH) broth (Bio-Rad, Marnes-la-Coquette, France) according to the CLSI guidelines ([53]). The results were interpreted according to the decrease in MIC value for the same antibiotic or combination of the corresponding recombinant strain producing the MBL enzyme. […] In a recent phase I clinical evaluation, XER was combined with cefiderocol. However, as this latter β-lactam substrate is known to be poorly hydrolyzed by IMP enzymes, it was not considered for the evaluation of XER inhibitory activity in this study. Instead, carbapenems were used as a substrate to evaluate the β-lactamase IMP activity in the presence or absence of XER and TAN, as it was deemed more specific for the IMP carbapenemase activity.

[2] = system: Pseudomonas aeruginosa PA11; assay: microbe, parasite or virus in culture; conditions: IMP-10, TAN/XER fixed at 4 µg/mL, XER 8 µg/mL in MEM-XER, read-out: Minimal inhibitory concentration
Experimental: as §1, §2

[3] = system: Escherichia coli E. coli 7 IMP; assay: microbe, parasite or virus in culture; conditions: E.COLI7IMP, read-out: Minimal inhibitory concentration
Experimental: as §1, §2

[4] = system: Pseudomonas aeruginosa PA10; assay: microbe, parasite or virus in culture; conditions: IMP-2, TAN/XER fixed at 4 µg/mL, XER 8 µg/mL in MEM-XER, read-out: Minimal inhibitory concentration
Experimental: as §1, §2

[5] = system: Enterobacter xiangfangensis SMART 409; assay: microbe, parasite or virus in culture; conditions: Enterobacter hormaechei, SMART409, read-out: Minimal inhibitory concentration
Experimental: as §1, §2

[6] = system: Klebsiella pneumoniae SMART 878; assay: microbe, parasite or virus in culture; conditions: for MIC: Klebsiella pneumoniae, SMART878, read-out: Minimal inhibitory concentration
Experimental: as §1, §2

[7] = system: Escherichia coli SMART 640; assay: microbe, parasite or virus in culture; conditions: SMART640, IMP-14, CTX-M-27, OXA-10, TAN/XER fixed at 4 µg/mL, XER 8 µg/mL in MEM-XER, read-out: Minimal inhibitory concentration
Experimental: as §1, §2

[8] = system: Klebsiella pneumoniae SMART 1133; assay: microbe, parasite or virus in culture; conditions: SMART1133, IMP-1, CTX-M-2, TAN/XER fixed at 4 µg/mL, XER 8 µg/mL in MEM-XER, read-out: Minimal inhibitory concentration
Experimental: as §1, §2

[9] = system: Klebsiella pneumoniae SMART 882; assay: microbe, parasite or virus in culture; conditions: for MIC: Klebsiella pneumoniae, SMART882, read-out: Minimal inhibitory concentration
Experimental: as §1, §2

[10] = system: Enterobacter hormaechei subsp. steigerwaltii SMART 1276; assay: microbe, parasite or virus in culture; conditions: read-out: Minimal inhibitory concentration
Experimental: as §1, §2

[11] = system: Enterobacter hormaechei subsp. steigerwaltii SMART 398; assay: microbe, parasite or virus in culture; conditions: read-out: Minimal inhibitory concentration
Experimental: as §1, §2

[12] = system: Escherichia coli SMART 1132; assay: microbe, parasite or virus in culture; conditions: SMART1132, IMP-6, CTX-M-2, TAN/XER fixed at 4 µg/mL, XER 8 µg/mL in MEM-XER, read-out: Minimal inhibitory concentration
Experimental: as §1, §2

[13] = system: Pseudomonas aeruginosa CC02-010; assay: microbe, parasite or virus in culture; conditions: CC02010, IMP-7, TAN/XER fixed at 4 µg/mL, XER 8 µg/mL in MEM-XER, read-out: Minimal inhibitory concentration
Experimental: as §1, §2

[14] = system: Pseudomonas aeruginosa PA14; assay: microbe, parasite or virus in culture; conditions: IMP-18, TAN/XER fixed at 4 µg/mL, XER 8 µg/mL in MEM-XER, read-out: Minimal inhibitory concentration
Experimental: as §1, §2

[15] = system: Enterobacter hormaechei subsp. steigerwaltii SMART 1234; assay: microbe, parasite or virus in culture; conditions: read-out: Minimal inhibitory concentration
Experimental: as §1, §2

[16] = system: Klebsiella pneumoniae SMART 1131; assay: microbe, parasite or virus in culture; conditions: SMART1131, IMP-6, CTX-M-2, TAN/XER fixed at 4 µg/mL, XER 8 µg/mL in MEM-XER, read-out: Minimal inhibitory concentration
Experimental: as §1, §2

[17] = system: Klebsiella pneumoniae SMART 651; assay: microbe, parasite or virus in culture; conditions: SMART651, read-out: Minimal inhibitory concentration
Experimental: as §1, §2

[18] = system: Klebsiella pneumoniae ATCC BAA-2814; assay: microbe, parasite or virus in culture; conditions: ATCCBAA2814, read-out: Minimal inhibitory concentration
Experimental: as §2

[19] = system: Escherichia coli NCTC 13353; assay: microbe, parasite or virus in culture; conditions: NCTC13353, read-out: Minimal inhibitory concentration
Experimental: as §2

P. aeruginosa ATCC 27853 = assay: microbe, parasite or virus in culture; conditions: Pseudomonas aeruginosa, ATCC27853; QC 4; no acquired β-lactamase; TAN/XER fixed at 4 µg/mL, XER 8 µg/mL in MEM-XER; read-out: Minimal inhibitory concentration
Experimental: as §2

[20] = system: Escherichia coli ATCC 25922; assay: microbe, parasite or virus in culture; conditions: ATCC25922, QC 3, no acquired β-lactamase, TAN/XER fixed at 4 µg/mL, XER 8 µg/mL in MEM-XER, read-out: Minimal inhibitory concentration
Experimental: as §2

CO/N=C(\C(=O)N[C@@H]1C(=O)N2C(C(=O)[O-])=C(C[N+]3(C)CCCC3)CS[C@H]12)c1csc(N)n1 [FEP, cefepime]
MIC (E. coli IMP-2): 8 µg/mL | MIC [1]: 256 µg/mL | MIC [2]: > 256 µg/mL | MIC [3]: > 256 µg/mL | MIC [4]: > 256 µg/mL | MIC [5]: 4 µg/mL | MIC [6]: 256 µg/mL | MIC [7]: 128 µg/mL | MIC [8]: > 256 µg/mL | MIC [9]: 256 µg/mL | MIC [10]: > 256 µg/mL | MIC [11]: 128 µg/mL | MIC [12]: 128 µg/mL | MIC [13]: > 256 µg/mL | MIC [14]: 256 µg/mL | MIC [15]: 8 µg/mL | MIC [16]: 64 µg/mL | MIC [17]: 64 µg/mL | MIC [18]: > 256 µg/mL | MIC [19]: 256 µg/mL | MIC (P. aeruginosa ATCC 27853): 1 µg/mL | MIC [20]: ≤ 0.25 µg/mL

C[C@@H](O)[C@H]1C(=O)N2C(C(=O)O)=C(SCCN=CN)C[C@H]12 [IPM, imipenem]
MIC (E. coli IMP-2): 0.5 µg/mL | MIC [1]: 0.5 µg/mL | MIC [2]: 256 µg/mL | MIC [3]: 0.5 µg/mL | MIC [4]: 32 µg/mL | MIC [5]: ≤ 0.25 µg/mL | MIC [6]: ≤ 0.25 µg/mL | MIC [7]: 0.5 µg/mL | MIC [8]: 128 µg/mL | MIC [9]: ≤ 0.25 µg/mL | MIC [10]: 0.5 µg/mL | MIC [11]: 0.5 µg/mL | MIC [12]: ≤ 0.25 µg/mL | MIC [13]: 128 µg/mL | MIC [14]: 128 µg/mL | MIC [15]: ≤ 0.25 µg/mL | MIC [16]: ≤ 0.25 µg/mL | MIC [17]: 1 µg/mL | MIC [18]: 16 µg/mL | MIC [19]: ≤ 0.25 µg/mL | MIC (P. aeruginosa ATCC 27853): 1 µg/mL | MIC [20]: ≤ 0.25 µg/mL

C[C@@H](O)[C@H]1C(=O)N2C(C(=O)O)=C(S[C@@H]3CN[C@H](C(=O)N(C)C)C3)[C@H](C)[C@H]12 [MEM, meropenem]
MIC (E. coli IMP-2): 1 µg/mL | Minimal inhibitory concentration [1]: 8 µg/mL | MIC [1]: 16 µg/mL | MIC [2]: > 256 µg/mL | MIC [3]: 1 µg/mL | MIC [4]: 32 µg/mL | MIC [5]: ≤ 0.125 µg/mL | Minimal inhibitory concentration ([6]; IMP-26, CTX-M-15, OXA-1, TEM-1 like, TAN/XER fixed at 4 µg/mL, XER 8 µg/mL in MEM-XER): 1 µg/mL | MIC [6]: 4 µg/mL | MIC [7]: 4 µg/mL | MIC [8]: 64 µg/mL | Minimal inhibitory concentration ([9]; IMP-26, CTX-M-15, OXA-1, TAN/XER fixed at 4 µg/mL, XER 8 µg/mL in MEM-XER): 1 µg/mL | MIC [9]: 4 µg/mL | MIC [10]: 2 µg/mL | MIC [11]: 0.5 µg/mL | MIC [12]: 4 µg/mL | MIC [13]: 256 µg/mL | MIC [14]: 32 µg/mL | MIC [15]: 0.5 µg/mL | MIC [16]: 8 µg/mL | MIC [17]: 8 µg/mL | MIC [18]: 64 µg/mL | MIC [19]: ≤ 0.25 µg/mL | MIC (P. aeruginosa ATCC 27853): 0.5 µg/mL | MIC [20]: ≤ 0.25 µg/mL
